{"source": "patent US20060030562A1", "about": "“Use of an inhibitor of cathepsin-S-or-B to treat or prevent chronic obstructive pulmonary disease” (AVENTIS PHARMACEUTICALS INC., priority 2003, published 2006)", "type_in_all_cases": "in vivo", "key": {"[1]": {"system": "CC10-rtTA-IFN-γ transgene (+) mice", "test": "IFN-γ-induced emphysema (lung volume, chord length, histology, compliance) in transgenic mice", "conditions": "transgene (+) mice on dox, Z-VAD-fmk 3 μg/kg/day I.P., 14150 10 mg/kg/day by gavage, CA074 10 mg/Kg/day, leupeptin 15 mg/kg I.P., vs vehicle", "excerpt": "(§1) CC10-rtTA-IFN-γ mice that had been generated in our laboratory and bred for at least 10 generations onto a Balb/c background were used in these studies. These are dual transgene positive animals in which the reverse tetracycline transactivator (rtTA) drives the expression of the murine IFN-γ gene in a lung-specific and externally regulatable fashion. The transgene in these mice is activated by adding doxycycline (dox) to the animal's drinking water. These mice were maintained as dual transgene (+) heterozygotes (refered to as transgene (+) hereafter).\n(§2) CC 10-rtTA-IFN-γ mice and littermate controls were maintained on normal water until they were 4-6 weeks old.\n(§3) Animals were sacrificed via cervical dislocation, a median sternotomy was performed, and right heart perfusion was accomplished with calcium- and magnesium-free PBS to clear the pulmonary intravascular space. The lungs were then fixed to pressure (25 cm) with neutral buffered 10% formalin, fixed overnight in 10% formalin, embedded in paraffin, sectioned at 5 μm and stained. Hematoxylin and eosin (H&E) stains were performed in the Research Histology Laboratory of the Department of Pathology at Yale University School of Medicine.\nIn brief, the trachea was cannulated, the lungs were degassed and the lungs and heart were removed en bloc and inflated with PBS at 25 cm of pressure. The size of the lung was evaluated via volume displacement. Compliance was calculated as the change in volume divided by the change in pressure."}, "[2]": {"system": "CC10-rtTA-IFN-γ transgene (+) mice", "test": "IFN-γ-induced lung cell apoptosis (TUNEL) in transgenic mice", "conditions": "for IFN-γ-induced apoptosis (TUNEL): transgene (+) mice on dox, 14150 10 mg/kg/day by gavage, CA074 10 mg/Kg/day, leupeptin 15 mg/kg I.P., vs vehicle", "excerpt": "as §1, §2\nEnd labeling of exposed 3′-OH ends of DNA fragments in paraffin embedded tissue was undertaken with the TUNEL in situ cell death detection kit AP (Roche Diagnostics, Calif., USA) using the instructions provided by the manufacturer. After staining, 20 fields of alveoli were randomly chosen and 2000 nuclei were counted. The labeled cells were expressed as percentage of total nuclei."}, "[3]": {"system": "CC10-rtTA-IFN-γ transgene (+) mice", "test": "Lung mRNA encoding cathepsins and MMPs (RT-PCR, real-time RT-PCR)", "conditions": "transgene (+) mice on dox 2 weeks"}, "[4]": {"system": "CC10-rtTA-IFN-γ transgene (+) mice", "test": "IFN-γ-induced BAL and tissue inflammation", "conditions": "transgene (+) mice on dox 2 weeks", "protocol": "Mice were euthanized, the trachea was isolated by blunt dissection, and tubing was secured in the airway. Two volumes of 1 mL of PBS with 0.1% BSA were then instilled and gently aspirated and pooled. Each BAL fluid sample was centrifuged, and the supernatants were stored in −70° C. until used The levels of IFN-γ were determined using a commercial ELISA (R&D Systems Inc., Minneapolis, Minn., USA) as per the manufacturer's instructions.\nas §3"}}, "note": "Entries after “also recorded” stand apart in the source; their conditions may differ. Peptide text beside a SMILES is read from it. * marks the point of attachment. Cbz = O=C(OCc1ccccc1)*; CH2F = FC*", "data": [{"molecule": "CCCNC(=O)[C@H]1O[C@@H]1C(=O)N[C@H](C(=O)N1CCC[C@H]1C(=O)O)[C@@H](C)CC", "note": "(relative stereo) [CA074, N-(L-3-trans-propylcarbamoyl-oxirane-2-carbonyl)-L-isoleucyl-L-proline]", "values": [{"measurement": "IFN-γ-induced emphysema (lung volume, chord length, alveolar histology, compliance)", "setting": "[1]", "result": "significant decreases"}, {"measurement": "IFN-γ-induced apoptosis (TUNEL)", "setting": "[2]", "result": "significant decreases"}]}, {"molecule": "COC(=O)C[C@H](NC(=O)[C@H](C)NC(=O)[C@@H](NC(=O)OCc1ccccc1)C(C)C)C(=O)CF", "note": "[Z-VAD-fmk] (Cbz-Val-Ala-Asp(OMe)-CH2F)", "values": [{"measurement": "IFN-γ-induced increase in mRNA encoding cathepsin B, cathepsin S and MMPs-2 and -14", "setting": "[3]", "result": "markedly ameliorated"}, {"measurement": "levels of mRNA encoding cathepsin H and MMPs-9 and -12", "setting": "[3]", "result": "not similarly altered"}, {"measurement": "IFN-γ-induced emphysema (lung volume, chord length, alveolar histology, compliance)", "setting": "[1]", "result": "decreased the emphysema generating effects of IFN-γ"}, {"measurement": "IFN-γ-induced emphysema (lung volume, chord length, alveolar histology, compliance)", "setting": "[1]; listed as Z-VAD-fink", "result": "only partially abrogated"}, {"measurement": "decrease of the levels of IFN-γ-induced apoptosis", "setting": "[2]; transgene (+) mice on dox 2 weeks, Z-VAD-fmk 3 μg/kg/day I.P. vs vehicle", "result": "≥ 85", "unit": "%"}, {"measurement": "IFN-γ-induced BAL total cell, neutrophil, lymphocyte and macrophage alterations and tissue inflammation", "setting": "[4]", "result": "markedly ameliorated"}]}, {"molecule": "CC[C@H](NC(=O)[C@H](CS(=O)(=O)CC(C)C)NC(=O)N1CCOCC1)C(=O)c1nc2ccccc2o1", "note": "[compound 14150]", "values": [{"measurement": "IFN-γ-induced emphysema (lung volume, chord length, alveolar histology, compliance)", "setting": "[1]", "result": "significant decreases; also recorded: significantly inhibited"}, {"measurement": "IFN-γ-induced apoptosis (TUNEL)", "setting": "[2]", "result": "significant decreases; also recorded: significantly inhibited"}]}, {"molecule": "CC(=O)N[C@@H](CC(C)C)C(=O)N[C@@H](CC(C)C)C(=O)N[C@H](C=O)CCCNC(=N)N", "note": "[leupeptin]", "values": [{"measurement": "IFN-γ-induced increase in mRNA encoding cathepsin B, cathepsin S and MMPs-2 and -14", "setting": "[3]", "result": "decreased"}, {"measurement": "MMP-9 mRNA induction", "setting": "[3]", "result": "induced in am leupeptin-dependent fashion"}]}]}
